{"source": "patent US11980596B2", "about": "(priority 2017, dated 2024)", "key": {"[1]": {"test_system": "subjects with MDD at imminent risk for suicide", "assay": "MADRS suicide item ([…]2001)", "type": "in vivo, human", "settings": "84 mg; Day 1: 4-hours postdose, Day 2 (DB), End Point (DB); two-sided level 0.20", "source_text": "• a. Changes from baseline to Day 2 and Day 25 for the MADRS total score • b. Changes from baseline to Day 1 4-hours postdose, Day 2 and Day 25 for the MADRS Suicide Item • c. Changes from baseline to Day 1 4-hours postdose, Day 2, and Day 25 for the clinical global judgment of suicide risk from the Suicide Ideation and Behavior Assessment Tool (SIBAT) • d. Sustained response (Onset of Clinical Response) defined as at least 50% reduction from baseline in MADRS total score with onset on Day 1 that is maintained through the end of the double-blind phase (Day 25) • e. Changes from baseline to Day 1 4-hours postdose, Day 2, and Day 25 for the Beck Scale for Suicidal Ideation (BSS) • f. Changes from baseline to Day 1 4-hours postdose and Day 25 for the Beck Hopelessness Scale\nResults of the change from baseline over time for the suicide item from the MADRS assessment can be found in Attachment 1."}, "[2]": {"test_system": "subjects with MDD at imminent risk for suicide", "assay": "Beck Scale for Suicidal Ideation (BSS) ([…]2001)", "type": "in vivo, human", "method": "The BSS is a 21-item self-reported instrument to detect and measure the severity of suicidal ideation in adults and adolescents aged 17 years and older. The BSS total score represents the severity of suicide ideation, and it is calculated by summing the ratings of the first 19 items; the total score ranges from 0 to 38, with a higher score representing greater suicide ideation. Increasing scores reflect increases in suicidal risk."}, "subjects with TRD": {"test_system": "subjects with TRD", "type": "in vivo, human", "settings": "post dose", "method": "Transient blood pressure increases peaked for the esketamine group at approximately 40 minutes post dose and returned closer to predose levels by 1.5 hours post dose."}, "[3]": {"settings": "single dose; 72 mg", "method": "This study includes a single dose and 14-day repeated dose neurotoxicity studies with intranasally administered esketamine in female rats 12 to 14 weeks of age. These studies were conducted to investigate whether single or repeated intranasal administrations of esketamine induced neurodegenerative changes in the rat brain. The study results were used to estimate an esketamine exposure-based safety margin compared with the maximum dose of esketamine administered intranasally to depressed adult patients in clinical trials.\nThe vehicle- and the 36 and 54 mg-dosed groups consisted of 24 animals per group, while the 72 mg-dosed and positive control groups involved 30 animals per group. Four satellite animals were added to the esketamine HCl-dosed groups of main study animals for toxicokinetic (TK) purposes. In these animals the plasma exposure to esketamine was measured on the day of dosing at various time points up to and including 24 hours after the first instillation."}, "[4]": {"assay": "Pre- and postnatal study, intranasal esketamine, pregnant rats", "type": "in vivo, rat", "settings": "female, rat, in vivo, inhaled or intranasal; intranasal; pregnancy and lactation; read-out: NOAEL for maternal toxicity and decreased motor activity during the postweaning period", "method": "(§1) This sensory/motor developmental measure was tested starting on postnatal day (PND) 9, and the effect normalized by PND 19 in treatment groups as compared with PND 14 for the majority of the control animals. There is no NOAEL for this delay in sensory/motor response observed in pups during the preweaning period."}, "pregnant rats and pups": {"test_system": "pregnant rats and pups", "assay": "Pre- and postnatal study, intranasal esketamine, pregnant rats", "type": "in vivo, rat", "method": "as §1"}, "[5]": {"settings": "esketamine 84 mg minus placebo, ANCOVA LOCF"}, "[6]": {"settings": "esketamine 84 mg, LOCF, ITT, N = 34"}, "[7]": {"settings": "esketamine 84 mg, LOCF, ITT, N = 34, negative change = improvement"}, "[8]": {"settings": "esketamine 84 mg, predose Day 1, ITT, N = 34"}}}
{"smiles": "CN[C@]1(c2ccccc2Cl)CCCCC1=O", "note": "[esketamine, (S)-2-(2-chlorophenyl)-2-(methylamino)cyclohexanone]", "values": [{"measurement": "MADRS suicide item: change from baseline vs placebo", "setting": "[1]", "result": "Statistically significant differences favoring esketamine"}, {"measurement": "BSS total score: change vs placebo", "setting": "[2]; 84 mg, Day 1: 4-hours postdose, Day 2 (DB), End Point (DB)", "result": "no statistically significant differences"}, {"measurement": "BSS total score, change to Day 1 (DB): 4H, Diff. of LS Means (SE)", "setting": "[2]; [5]", "result": "−2.3 (2.29)"}, {"measurement": "BSS total score, change to Day 2 (DB), Diff. of LS Means (SE)", "setting": "[2]; [5]", "result": "−1.9 (2.30)"}, {"measurement": "BSS total score, change to End Point (DB), Diff. of LS Means (SE)", "setting": "[2]; [5]", "result": "−1.7 (2.15)"}, {"measurement": "BSS total score, Day 2 (DB), Median (Range)", "setting": "[2]; [6]", "result": "13.0 (0; 34)"}, {"measurement": "BSS total score, End Point (DB), Mean (SD)", "setting": "[2]; [6]", "result": "4.7 (9.03)"}, {"measurement": "BSS total score, End Point (DB), Median (Range)", "setting": "[2]; [6]", "result": "0.0 (0; 34)"}, {"measurement": "BSS total score, Change from Baseline to Day 1 (DB): 4H, Median (Range)", "setting": "[2]; [7]", "result": "−8.0 (−33; 8)"}, {"measurement": "BSS total score, Change from Baseline to End Point (DB), Median (Range)", "setting": "[2]; [7]", "result": "−21.0 (−33; 8)"}, {"measurement": "BSS total score, Baseline (DB), Mean (SD)", "setting": "[2]; [8]", "result": "24.0 (5.45)"}, {"measurement": "BSS total score, Baseline (DB), Median (Range)", "setting": "[2]; [8]", "result": "25.0 (8; 33)"}, {"measurement": "Blood pressure returned closer to predose levels by", "setting": "subjects with TRD", "result": "≤ 1.5", "unit": "h"}, {"measurement": "Time of peak of transient blood pressure increases", "setting": "subjects with TRD", "result": "approximately 40 minutes"}, {"measurement": "AUC-based safety margin compared with the maximum 84 mg clinical dose", "setting": "[3]", "result": "~86", "unit": "fold"}, {"measurement": "Cmax-based safety margin compared with the maximum 84 mg clinical dose", "setting": "[3]", "result": "approximately 60 fold"}, {"measurement": "NOAEL", "setting": "[4]", "result": 4.5, "unit": "mg/kg/day"}, {"measurement": "AUC exposure, multiple of the MRHD of 84 mg/day", "setting": "pregnant rats and pups; 4.5 mg/kg/day intranasal", "result": 0.07, "unit": "times"}, {"measurement": "AUC exposure, multiple of the MRHD of 84 mg/day", "setting": "pregnant rats and pups; 15 mg/kg/day intranasal", "result": 0.5, "unit": "times"}, {"measurement": "AUC exposure, multiple of the MRHD of 84 mg/day", "setting": "pregnant rats and pups; 45 mg/kg/day intranasal", "result": 0.7, "unit": "times"}]}
